The record followed here is PubChem BioAssay AID1259407 (Chemical Carcinogenesis Research Information System (CCRIS), 2018).

The subject of this data set is CCRIS mutagenicity, Ames/micronucleus/aberration tests. Briefly: CCRIS mutagenicity studies.
Where [1] appears, read: Test System: AMES SALMONELLA TYPHIMURIUM, Strain/Indicator: TA98, Metabolic Activation: NONE, Method: STANDARD PLATE.
Setting [2] is: Test System: AMES SALMONELLA TYPHIMURIUM, Strain/Indicator: TA98, Metabolic Activation: RAT, LIVER, S-9, AROCLOR 1254, Method: STANDARD PLATE.
[3] abbreviates: Test System: AMES SALMONELLA TYPHIMURIUM, Strain/Indicator: TA100, Metabolic Activation: NONE, Method: STANDARD PLATE.
Where [4] appears, read: Test System: AMES SALMONELLA TYPHIMURIUM, Strain/Indicator: TA100, Metabolic Activation: RAT, LIVER, S-9, AROCLOR 1254, Method: STANDARD PLATE.
The mark [5] stands for this setting: Test System: AMES SALMONELLA TYPHIMURIUM, Strain/Indicator: TA1535, Metabolic Activation: NONE, Method: STANDARD PLATE.
The mark [6] stands for this setting: Test System: AMES SALMONELLA TYPHIMURIUM, Strain/Indicator: TA1535, Metabolic Activation: RAT, LIVER, S-9, AROCLOR 1254, Method: STANDARD PLATE.
The mark [7] stands for this setting: Test System: AMES SALMONELLA TYPHIMURIUM, Strain/Indicator: TA1537, Metabolic Activation: NONE, Method: STANDARD PLATE.
[8] abbreviates: Test System: AMES SALMONELLA TYPHIMURIUM, Strain/Indicator: TA1537, Metabolic Activation: RAT, LIVER, S-9, AROCLOR 1254, Method: STANDARD PLATE.
Where [9] appears, read: Test System: AMES SALMONELLA TYPHIMURIUM, Strain/Indicator: TA98, Metabolic Activation: NONE, Method: PREINCUBATION

Structures are written as SMILES. The source made the active and inactive calls. The rule behind the calls is not given here.

Consider `CC(C)=CC1C(C(=O)OCc2coc(Cc3ccccc3)c2)C1(C)C` (stereo not drawn), for which the mutagenic call is “inactive; negative” (Test System: AMES SALMONELLA TYPHIMURIUM, Strain/Indicator: TA97, Metabolic Activation: NONE, Method: STANDARD PLATE); “inactive; negative” (Test System: AMES SALMONELLA TYPHIMURIUM, Strain/Indicator: TA97, Metabolic Activation: RAT, LIVER, S-9, PHENOBARBITONE, Method: STANDARD PLATE); “active; positive” (Test System: AMES SALMONELLA TYPHIMURIUM, Strain/Indicator: TA98); “inactive; negative” (Test System: AMES SALMONELLA TYPHIMURIUM, Strain/Indicator: TA98, Metabolic Activation: NONE); “inactive; negative” under setting [1]; “inactive; negative” under setting [2]. In addition, the mutagenic call by setting is: (Test System: AMES SALMONELLA TYPHIMURIUM, Strain/Indicator: TA98, Metabolic Activation: RAT, LIVER, S-9, PHENOBARBITONE, Method: STANDARD PLATE) “inactive; negative”; (Test System: AMES SALMONELLA TYPHIMURIUM, Strain/Indicator: TA100) “active; positive”; (Test System: AMES SALMONELLA TYPHIMURIUM, Strain/Indicator: TA100, Metabolic Activation: NONE) “inactive; negative”; under setting [3], “inactive; negative”; under setting [4], “inactive; negative”; (Test System: AMES SALMONELLA TYPHIMURIUM, Strain/Indicator: TA100, Metabolic Activation: RAT, LIVER, S-9, PHENOBARBITONE, Method: STANDARD PLATE) “inactive; negative”. Besides, the mutagenic call runs as follows: (Test System: AMES SALMONELLA TYPHIMURIUM, Strain/Indicator: TA104, Metabolic Activation: NONE, Method: STANDARD PLATE) “inactive; negative”; (Test System: AMES SALMONELLA TYPHIMURIUM, Strain/Indicator: TA104, Metabolic Activation: RAT, LIVER, S-9, PHENOBARBITONE, Method: STANDARD PLATE) “inactive; negative”; under setting [5], “inactive; negative”; under setting [6], “inactive; negative”; under setting [7], “inactive; negative”; under setting [8], “inactive; negative”. The mutagenic call runs as follows: (Test System: CHINESE HAMSTER V-79, Strain/Indicator: V-79/6-THIOGUANINE, Metabolic Activation: NONE, Method: STANDARD PLATE) “inactive; negative”; (Test System: CHINESE HAMSTER V-79, Strain/Indicator: V-79/6-THIOGUANINE, Metabolic Activation: RAT HEPATOCYTES, Method: STANDARD PLATE) “inactive; negative”; (Test System: CHINESE HAMSTER V-79, Strain/Indicator: V-79/OUABAIN, Metabolic Activation: NONE, Method: STANDARD PLATE) “inactive; negative”; (Test System: CHINESE HAMSTER V-79, Strain/Indicator: V-79/OUABAIN, Metabolic Activation: RAT HEPATOCYTES, Method: STANDARD PLATE) “inactive; negative”; (Test System: E. COLI, Strain/Indicator: WP2, Metabolic Activation: NONE, Method: STANDARD PLATE) “inactive; negative”; (Test System: E. COLI, Strain/Indicator: WP2, Metabolic Activation: RAT, LIVER, S-9, AROCLOR 1254, Method: STANDARD PLATE) “inactive; negative”.

For the compound `OC1c2cccc3c2C2(OC2C1O)c1ccc2ccccc2c1-3` (stereo not drawn), the mutagenic call by setting is: (Test System: AMES SALMONELLA TYPHIMURIUM, Strain/Indicator: TA97A, Metabolic Activation: NONE, Method: PREINCUBATION) “active; positive”; under setting [9], “active; positive”; (Test System: AMES SALMONELLA TYPHIMURIUM, Strain/Indicator: TA100, Metabolic Activation: NONE, Method: PREINCUBATION) “active; positive”.

On to `O=[N+]([O-])c1ccc2c(c1)-c1nc3ccccc3c3c1c-2nc1ccccc13`, for which the mutagenic call by setting is: under setting [1], “active; positive”; (Test System: AMES SALMONELLA TYPHIMURIUM, Strain/Indicator: TA98, Metabolic Activation: RAT LIVER S-9, AROCLOR 1254, Method: STANDARD PLATE) “active; positive”; (Test System: ESCHERICHIA COLI, Strain/Indicator: WP2 UVR A, Metabolic Activation: NONE, Method: STANDARD PLATE) “inactive; negative”; (Test System: ESCHERICHIA COLI, Strain/Indicator: WP2 UVR A, Metabolic Activation: RAT LIVER S-9, AROCLOR 1254, Method: STANDARD PLATE) “inactive; negative”.

On to `Cc1cc(C)cc(NO)c1`, for which the mutagenic call (Test System: AMES SALMONELLA TYPHIMURIUM, Strain/Indicator: TA100, Metabolic Activation: RAT, LIVER, S-9, PCB, Method: PREINCUBATION) was “active; positive”.

`O=C(c1ccccc1)C1OC1c1ccc([N+](=O)[O-])cc1` (stereo not drawn): the mutagenic call reads like this: under setting [1], “inactive; negative”; under setting [2], “inactive; negative”; under setting [3], “inactive; negative”; under setting [4], “inactive; negative”.

On to `Fc1ccccc1-c1ccccc1`, for which the mutagenic call is “inactive; negative” (Test System: AMES SALMONELLA TYPHIMURIUM, Strain/Indicator: TA98, Metabolic Activation: HAMSTER, LIVER, S-9, AROCLOR 1254, Method: STANDARD PLATE); “inactive; negative” under setting [1]; “inactive; negative” under setting [2]; “inactive; negative” (Test System: AMES SALMONELLA TYPHIMURIUM, Strain/Indicator: TA100, Metabolic Activation: HAMSTER, LIVER, S-9, AROCLOR 1254, Method: STANDARD PLATE); “inactive; negative” under setting [3]; “inactive; negative” under setting [4]. The mutagenic call (Test System: AMES SALMONELLA TYPHIMURIUM, Strain/Indicator: TA1535, Metabolic Activation: HAMSTER, LIVER, S-9, AROCLOR 1254, Method: STANDARD PLATE) is “inactive; negative”; the mutagenic call under setting [5] was “inactive; negative”; the mutagenic call under setting [6] was “inactive; negative”; the mutagenic call (Test System: AMES SALMONELLA TYPHIMURIUM, Strain/Indicator: TA1537, Metabolic Activation: HAMSTER, LIVER, S-9, AROCLOR 1254, Method: STANDARD PLATE) was “inactive; negative”; the mutagenic call under setting [7] is “inactive; negative”; the mutagenic call under setting [8] is “inactive; negative”. In addition, the mutagenic call is, setting by setting: (Test System: AMES SALMONELLA TYPHIMURIUM, Strain/Indicator: TA1538, Metabolic Activation: HAMSTER, LIVER, S-9, AROCLOR 1254, Method: STANDARD PLATE) “inactive; negative”; (Test System: AMES SALMONELLA TYPHIMURIUM, Strain/Indicator: TA1538, Metabolic Activation: NONE, Method: STANDARD PLATE) “inactive; negative”; (Test System: AMES SALMONELLA TYPHIMURIUM, Strain/Indicator: TA1538, Metabolic Activation: RAT, LIVER, S-9, AROCLOR 1254, Method: STANDARD PLATE) “inactive; negative”; (Test System: Mouse lymphoma, Strain/Indicator: L5178Y (tk+/tk-), Metabolic Activation: None, Method: Suspension/plate) “inactive; negative”; (Test System: Mouse lymphoma, Strain/Indicator: L5178Y (tk+/tk-), Metabolic Activation: Rat, Liver, S-9, Aroclor 1254, Method: Suspension/plate) “inactive; negative”.

Regarding `C[C@H](CCC(=O)O)[C@H]1CC[C@H]2[C@@H]3C(=O)C[C@@H]4CC(=O)CC[C@]4(C)[C@H]3CC[C@]12C`, the mutagenic call is, setting by setting: (Test System: AMES SALMONELLA TYPHIMURIUM, Strain/Indicator: TA98, Metabolic Activation: NONE, Method: FLUCTUATION TEST) “inactive; negative”; under setting [9], “inactive; negative”; (Test System: AMES SALMONELLA TYPHIMURIUM, Strain/Indicator: TA98, Metabolic Activation: RAT, LIVER, S-9, PCB, Method: PREINCUBATION) “inactive; negative”; (Test System: AMES SALMONELLA TYPHIMURIUM, Strain/Indicator: TA100, Metabolic Activation: NONE, Method: FLUCTUATION TEST) “inactive; negative”.

As to `O=C1NC(=O)C(Cl)=C1Cl`, the mutagenic call under setting [3] was “active; positive”.
